According to patent US4605660A, “Indeno[2,1-c]pyridine compounds, and their use as calcium channel blockers” (Merck & Co., Inc., priority 1985, dated 1986):

Test system: Rat Aorta
Test: Inhibition of calcium chloride-induced contraction of depolarized rat aorta (vascular smooth muscle segments in tissue bath)
Assay type: cell-based, male Sprague-Dawley rats
Conditions: contraction induced by 1.0 mM calcium chloride; for inhibition at 10 µM / inhibition at 1 µM: Rattus norvegicus, read-out: Percent Inhibition of Contraction of Rat Aorta; for inhibition at 10 µM: at 10^-5 M
Method: The property may be observed in a test in which segments of vascular smooth muscle obtained from male Sprague-Dawley rats are suspended in physiological salt solution in a tissue bath instrumented for recording contractions. After the tissue has been equilibrated, washed in calcium-free physiological salt solution and then depolarized, 1.0 mM calcium chloride is re-added to induce contraction. […] From measuring the initial contraction as well as the second contraction in the presence of the test compound, the extent of inhibition may be calculated.

CCOC(=O)C1=C(C)N[C@@](C)(C#N)[C@]2(C(=O)OCC)[C@@H](O)c3ccccc3[C@H]12 (relative stereo) [Compound IIIA-1, 4a(R,S),9a(S,R)-Diethyl 1-cyano-1,3-dimethyl-2,4a,9,9a-tetrahydro-9-hydroxy-9H-indeno[2,1-c]pyridine-4,9a-dicarboxylate]
inhibition at 10 µM: 84%

COC(=O)C1=C(C)N[C@@](C)(C#N)[C@]2(C(=O)OC)[C@@H](O)c3cc(OC)ccc3[C@H]12 (relative stereo) [Compound IIIA-2, 4a(R,S),9a(S,R)-Dimethyl 1-cyano-9-hydroxy-7-methoxy-2,4a,9,9a-tetrahydro-1,3-dimethyl-9H-indeno[2,1-c]pyridine-4,9a-dicarboxylate hydrate]
inhibition at 1 µM (at 10^-6 M): 4%

COC(=O)C1=C(C)N[C@](C)(C#N)[C@]2(C(=O)OC)[C@@H](O)c3cc(OC)ccc3[C@H]12 (relative stereo) [Compound IIIB-2, 4a(R,S),9a(S,R)-Dimethyl 1-cyano-9-hydroxy-7-methoxy-2,4a,9,9a-tetrahydro-1,3-dimethyl-9H-indeno[2,1-c]pyridine-4,9a-dicarboxylate]
inhibition at 1 µM (at 10^-6 M): 2%

CCOC(=O)C1=C(C)N[C@@](C)(C#N)[C@]2(C(=O)OCC)[C@@H](OC(C)=O)c3ccccc3[C@H]12 (relative stereo) [Compound IVA-1, 4a(R,S),9a(S,R)-Diethyl 9-acetoxy-1-cyano-2,4a,9,9a-tetrahydro-1,3-dimethyl-9H-indeno[2,1-c]pyridine-4,9a-dicarboxylate]
inhibition at 10 µM: 62%

CCOC(=O)C1=C(C)N[C@](C)(C#N)[C@]2(C(=O)OCC)[C@@H](OC(C)=O)c3ccccc3[C@H]12 (relative stereo) [Compound IVB-1, 4a(R,S),9a(S,R)-Diethyl 9-acetoxy-1-cyano-2,4a,9,9a-tetrahydro-1,3-dimethyl-9H-indeno[2,1-c]pyridine-4,9a-dicarboxylate]
inhibition at 1 µM (at 10^-6 M): 6%

CCOC(=O)C1=C(C)N[C@@](C)(C#N)[C@]2(C(=O)OCC)[C@H](Cl)c3ccccc3[C@H]12 (relative stereo) [Compound V-1, 4a(R,S),9a(S,R)-Diethyl 9-chloro-1-cyano-2,4a,9,9a-tetrahydro-1,3-dimethyl-9H-indeno[2,1-c]pyridine-4,9a-dicarboxylate]
inhibition at 10 µM: 24%

CCOC(=O)C1=C(C)NC(C)(C#N)[C@]2(C(=O)OCC)C(O)c3ccccc3[C@H]12 (stereo partly drawn) [Compound IIIB-1, 4a(R,S),9a(S,R)-Diethyl 1-cyano-1,3-dimethyl-2,4a,9,9a-tetrahydro-9-hydroxy-9H-indeno[2,1-c]pyridine-4,9a-dicarboxylate]
Percent Inhibition of Contraction of Rat Aorta (at 10^-6 M): 52%
